Reference: PubChem BioAssay AID1926 (The Scripps Research Institute Molecular Screening Center, 2009)
Active and inactive are the calls of the source.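 Rule for the calls: active = IC50 half-maximal inhibitory concentration at or below 10 µM; inactive = IC50 above 10 µM.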

Biological target: VIM-2 metallo-beta-lactamase (Pseudomonas aeruginosa) (UniProt Q932Y6)
Experiment: VIM-2 CCF2 hydrolysis inhibition, assay artifact filter – biochemical, FRET readout, CCF2 substrate, artefact control for selective VIM-2 inhibitor project, dose response (AID 1926)
Conditions: purified VIM-2, CCF2 FRET substrate hydrolysis

Structure (SMILES)	IC50
Cc1cc(C(=O)OCC(=O)NC(=O)c2cccn2C)c2ccccc2n1	2.3 µM
COc1cccc(-n2c(CNC(=O)OC(C)(C)C)n[nH]c2=S)c1	7.83 µM
O=C(CSc1nnc(NC(=O)c2cccc(F)c2)s1)NCc1ccco1	4.55 µM
S=c1[nH]nc(Cn2c(-c3ccccn3)nc3ccccc32)n1-c1ccc2c(c1)OCCO2	4.03 µM
CSC[C@H](NC(=O)COc1cc2c(c3oc(=O)c(C)c(C)c13)CCC(C)(C)O2)C(=O)O	4.21 µM
O=c1[nH]c(SCc2n[nH]c(=S)n2-c2ccccc2)nc2sc3c(c12)CCC3	4.2 µM
Cc1c(OCC(=O)N2CCC[C@@H]2C(=O)O)ccc2c3c(c(=O)oc12)CCC3	5.43 µM
O=C(CSc1nnc(NC(=O)c2ccccc2)s1)NCc1ccco1	4.63 µM
Cc1c(C)c2c(OCC(=O)N[C@@H](C)C(=O)O)cc3c(c2oc1=O)CCC(C)(C)O3	1.54 µM
CC(=O)c1ccc(-c2ccc(Cn3c(C)nc4cc(N)c(C)nc43)cc2)cc1	6.28 µM
COc1ccccc1-c1n[nH]c(=S)n1Cc1ccco1	6.53 µM
S=c1[nH]nc(-c2cccs2)n1Cc1ccccc1	0.889 µM
O=C(CSc1nnc(NC(=O)C2CC2)s1)NCc1ccccc1Cl	4.62 µM
O=C(O)c1[nH]c2ccc(Cl)cc2c1CCN1C(=O)c2ccccc2C1=O	0.374 µM
COc1ccc2[nH]c(C(=O)O)c(CCN3C(=O)c4ccc(C(=O)O)cc4C3=O)c2c1	0.433 µM
Cc1c(Cl)c(-c2n[nH]c(=S)n2-c2ccc(F)cc2)nn1C	6.25 µM
CC(C)(C)c1ccc(-c2n[nH]c(=S)n2CCCN2CCOCC2)cc1	6.73 µM
C=C(c1cccc2ccccc12)P(=O)(O)O	2.17 µM
O=C1Nc2cc(C(=O)N3CCC(N4CCCCC4)CC3)ccc2S/C1=C\c1ccccc1	4.51 µM
S=c1[nH]nc(-c2ccccc2)n1Cc1ccccc1	8.3 µM
Cc1cc(=O)oc2c3c(cc(OCC(=O)N4CCC[C@H]4C(=O)O)c12)OC(C)(C)CC3	4.93 µM
Cc1ccc(-n2c(-c3nn(C)c(C)c3Cl)n[nH]c2=S)cc1	3.72 µM
CC(C)(C)CC(=O)Nc1nnc(SCC(=O)NCc2cccs2)s1	6.64 µM
NC(=O)SCC(=O)Nc1ccccc1C(=O)O	5.27 µM
Cc1ccc(-c2c(C(=O)O)c(C(=O)O)c3n2CSC3)cc1	2.95 µM
O=Cc1c(NCc2ccc(Cl)cc2)c2ccccc2[nH]c1=O	9.8 µM

Structure (SMILES)	IC50
CC(C)(C)C(=O)Nc1nnc(SCC(=O)NCc2cccs2)s1	0.874 µM
CC1CCCC(C)N1C(=O)CSc1nnc(NC(=O)c2cccs2)s1 (centres undefined)	3.92 µM
CC1CCCCC1n1c(-c2cccnc2)n[nH]c1=S (centres undefined)	4.05 µM
CCCCn1c(-c2ccoc2C)n[nH]c1=S	4.25 µM
COc1ccc(-c2cc(C(F)(F)F)nc(N3CCN(C)CC3)n2)cc1	> 59.6 µM (inactive)
C=CCn1c(C2CC2)n[nH]c1=S	8.36 µM
COc1ccccc1C(=O)Nc1nnc(SCC(=O)NCc2ccco2)s1	2.61 µM
O=P(O)(O)c1ccccc1OCCCCCOc1ccccc1P(=O)(O)O	0.862 µM
S=c1[nH]nc(-c2ccco2)n1-c1cccc2ccccc12	3.97 µM
O=C(O)c1ccccc1Sc1ncnc2sc3c(c12)CCC3	3.91 µM
CC(C)Cn1c(-c2ccco2)n[nH]c1=S	4.37 µM
Cc1cccc(-n2c(C)n[nH]c2=S)c1C	8.27 µM
S=c1[nH]nc(-c2ccccc2)n1C1C=CCCC1 (centres undefined)	4.99 µM
COCC(C)NC(=O)c1cc2cccc([N+](=O)[O-])c2[nH]1 (centres undefined)	6.15 µM
C=C(C)Cn1c(-c2cccs2)n[nH]c1=S	1.39 µM
COCC(=O)Nc1nnc(SCC(=O)NCc2cccs2)s1	3.62 µM
Cn1c(-c2sccc2OCc2ccc(Cl)cc2Cl)n[nH]c1=S	0.774 µM
CCc1cc(=O)oc2c(C)c(OCC(=O)N3CCC[C@@H]3C(=O)O)ccc12	8.96 µM
O=P(O)(O)c1ccccc1OCc1ccccc1	0.689 µM
O=C(CSc1nnc(NC(=O)c2cc(Br)ccc2Cl)s1)NCC1CCCO1 (centres undefined)	5.87 µM
Cc1c(C)c2c(OCC(=O)N3CCC[C@H]3C(=O)O)cc3c(c2oc1=O)CCC(C)(C)O3	0.525 µM
CCCn1c(C(C)C)n[nH]c1=S	3.48 µM
Cc1cccc(C(=O)Nc2nnc(SCC(=O)NCc3ccco3)s2)c1	inactive
S=c1[nH]nc(-c2cccs2)n1C1CCCCC1	1.31 µM
CCCC(=O)Nc1nnc(SCC(=O)NCc2cccs2)s1	4.68 µM
S=c1[nH]nc(C2CC2)n1Cc1ccco1	3.76 µM

Structure (SMILES)	IC50
O=C(O)Cn1cccc1C(=O)c1ccccc1	4.04 µM
O=C(CSc1nnc(NC(=O)C2CCCCC2)s1)NCc1ccco1	2.23 µM
CCCc1cc(=O)oc2c3c(cc(OCC(=O)N4CCC[C@H]4C(=O)O)c12)OC(C)(C)CC3	1.73 µM
Cc1cc(OCc2cc(C(=O)O)oc2C)c2c3c(c(=O)oc2c1)CCCC3	0.582 µM
Cc1cc(=O)oc2c3c(cc(OCC(=O)N[C@@H](Cc4ccccc4)C(=O)O)c12)OC(C)(C)CC3	7.51 µM
O=C(c1ccco1)N1N=C(c2ccc(Cl)cc2)CC1c1ccco1 (centres undefined)	1.61 µM
S=c1[nH]nc(C2CC2)n1Cc1ccccc1	0.94 µM
Cn1ccnc1SCC(=O)Nc1ccc2nc(SCC(=O)NC3CC3)sc2c1	9 µM
CCn1c(-c2nn(-c3ccccc3)ccc2=O)n[nH]c1=S	8.57 µM
CCCCn1c(-c2sccc2C)n[nH]c1=S	0.961 µM
O=C(O)c1c(C(=O)O)c(-c2ccc(Br)cc2)n2c1CSC2	1.51 µM
Cn1c(-c2sccc2OCc2ccccc2)n[nH]c1=S	1.2 µM
COc1cc2c(cc1OC)C(C)N(C(=O)c1nccnc1C(=O)O)CC2 (centres undefined)	5.74 µM
Cc1c(C)c2ccc(OCC(=O)N3CCC[C@@H]3C(=O)O)c(C)c2oc1=O	2.09 µM
CCN(CC)C(=O)CSc1nc2ccc(NC(=O)CSc3nccn3C)cc2s1	3.61 µM
CC1=C(C(=O)O)N2C(=O)C(NC(=O)c3nn(C)cc3[N+](=O)[O-])C2SC1 (centres undefined)	8.54 µM
Cc1ccc(-c2n[nH]c(=S)n2-c2ccccc2)cc1	inactive
CCOC(=O)N=S(N)(=O)c1ccccc1 (centres undefined)	4.85 µM
Cc1nn(CCc2n[nH]c(=S)n2-c2cccc(Cl)c2)c(C)c1[N+](=O)[O-]	4.31 µM
O=C(CSc1nnc(NC(=O)c2ccccc2[N+](=O)[O-])s1)NCc1ccco1	2.62 µM
O=C(O)C(NC(=O)c1ccccc1)=C(Cl)Cl	7.85 µM
COc1ccc(-c2n[nH]c(=S)n2-c2ccc3c(c2)OCCO3)cc1OC	2.62 µM
CCCCn1c(-c2nn(C)cc2Cl)n[nH]c1=S	1.62 µM
S=c1[nH]nc(-c2ccco2)n1Cc1ccccc1	3.51 µM
COc1ccccc1-n1c(-c2ccco2)n[nH]c1=S	5.21 µM
CSc1nc(SCC(=O)O)c2c3c(sc2n1)COC(C)(C)C3	5.35 µM

Structure (SMILES)	IC50
Fc1ccccc1-c1n[nH]c(=S)n1Cc1ccccc1	4.14 µM
S=c1[nH]nc(-c2ccc3ccccc3n2)n1-c1ccc2c(c1)OCCO2	7.92 µM
O=C(O)c1ccccc1C(=O)c1cccc2ccccc12	3.82 µM
CC(C)(C)c1ccc(COc2ccsc2C(=O)O)cc1	5.71 µM
O=C(O)C1Sc2[nH]c(=O)sc2C2c3cc(Cl)ccc3OC(=O)C12 (centres undefined)	> 59.6 µM (inactive)
Cc1ccc(S(=O)(=O)n2[nH]c(=O)cc2NC(=O)c2cccs2)cc1	0.12 µM
CC(C)(C)C(=O)Nc1nnc(CSCc2ccccc2F)s1	1.96 µM
O=c1[nH]c2c(s1)C(c1cccnc1)C1C3CCC(C3)C1S2 (centres undefined)	0.0339 µM
Cc1cc(C)n(-c2nc(SCC(=O)O)c3c4c(sc3n2)COC(C)(C)C4)n1	9.07 µM
Cc1cc(OCC(=O)N2CCC[C@@H]2C(=O)O)c2c(C)c(C)c(=O)oc2c1	5.31 µM
O=c1c2ccccc2cnn1Cc1n[nH]c(=S)n1C1CC2CCC1C2 (centres undefined)	9.66 µM
O=C(CCN1C(=O)/C(=C/c2ccccc2F)SC1=S)NCCCn1ccnc1	4.49 µM
Cc1cccc(C2c3[nH]c4ccccc4c3CCN2C(=O)c2cc(CC(C)C)[nH]c(=O)n2)n1 (centres undefined)	2.74 µM
O=C(CSc1nnc(NC(=O)c2ccccc2F)s1)NCc1ccc(F)cc1	3.65 µM
O=C1Nc2cc(C(=O)NCCCN3CCOCC3)ccc2S/C1=C/c1ccccc1F	inactive
O=C(CSc1nnc(NC(=O)c2c(F)cccc2F)s1)NCc1ccccc1	3.62 µM
O=C(O)c1[nH]c2ccc(Br)cc2c1CCN1C(=O)c2cccc([N+](=O)[O-])c2C1=O	0.716 µM
CCOC(=O)c1[nH]c(C(=O)O)c(CCC(=O)OC)c1C	5 µM
CCCCc1cc(=O)oc2c3c(cc(OCC(=O)N4CCC[C@H]4C(=O)O)c12)OC(C)(C)CC3	8.93 µM
O=[N+]([O-])c1ccc(-c2ccccc2)c([As](=O)(O)O)c1	0.245 µM
Cc1n[nH]c(C)c1CCCCOc1ccc([N+](=O)[O-])cc1	5.26 µM
CCCc1cc(=O)oc2c3c(cc(OCC(=O)N[C@@H](C)C(=O)O)c12)OC(C)(C)CC3	6.97 µM
S=c1[nH]nc(-c2ccccc2)n1CC1CCCO1 (centres undefined)	4.15 µM
CCCCn1c(-c2nn(C)c(C)c2Cl)n[nH]c1=S	1.99 µM
Cc1ccccc1C(=O)Nc1nnc(SCC(=O)NCc2ccco2)s1	1.12 µM
O=C(O)CC/C(=C\c1cc([N+](=O)[O-])ccc1Cl)c1nc2ccccc2s1	4.17 µM
